Data published in patent US9856216B2, “Compounds as TNIK, IKKε and TBK1 inhibitors and pharmaceutical composition comprising same” (GREEN CROSS CORPORATION, priority 2015, dated 2018).

molecular target: T1, TNIK (Homo sapiens, UniProt Q9UKE5); assay: ADP-Glo Kinase Assay, inhibition activity on TNIK; assay type: biochemical; conditions: not given
T1 construct: purchased Promega V4158
Procedure: The inhibition activities on TNIK, IKKε and TBK1 were measured by a luminometer, TNIK/IKKε/TBK1 Kinase Enzyme System (Promega, Ca# V4158; Invitrogen, PR8031B, Promega, Ca# V3991) and ADP-Glo Kinase Assay using ADP-Glo™ Kinase Analysis Kit (Promega, Ca# V9101) and a kinase reaction buffer [40 mM Tris(pH 7.5), 20 mM MgCl2, 0.1 mg/mL BSA] in accordance with the manufacturer's protocol.

T1 sequence (Q9UKE5 1-367 limits assumed): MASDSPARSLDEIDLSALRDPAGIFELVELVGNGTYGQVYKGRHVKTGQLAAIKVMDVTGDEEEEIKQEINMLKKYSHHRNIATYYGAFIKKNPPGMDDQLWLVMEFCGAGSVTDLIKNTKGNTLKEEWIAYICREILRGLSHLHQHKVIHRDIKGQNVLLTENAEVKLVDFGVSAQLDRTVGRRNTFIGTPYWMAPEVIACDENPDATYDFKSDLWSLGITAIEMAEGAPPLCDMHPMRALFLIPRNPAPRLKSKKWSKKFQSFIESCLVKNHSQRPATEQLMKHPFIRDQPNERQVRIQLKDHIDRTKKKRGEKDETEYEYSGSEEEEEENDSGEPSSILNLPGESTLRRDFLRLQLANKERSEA

**Q.** With `Nc1ccc(-c2ccc(F)cc2)c2c1C(=O)NC2` [Example 61, 7-Amino-4-(4-fluorophenyl)isoindolin-1-one] as the molecule, how does the “TNIK (μM)” value read?
**A.** Insoluble

**Q.** With `CN(C)c1cccc(C(=O)Nc2ccc(-c3ccccc3)c3c2C(=O)NC3)c1` [Example 95, 3-(Dimethylamino)-N-(3-oxo-7-phenylisoindolin-4-yl) benzamide] as the molecule, how does the “TNIK (μM)” value read?
**A.** Insoluble

**Q.** For `COc1ccc(C(=O)Nc2ccc(-c3ccccc3)c3c2C(=O)NC3)cc1OC` [Example 102, 3,4-Dimethoxy-N-(3-oxo-7-phenylisoindolin-4-yl)benzamide], which “TNIK (μM)” value is on record?
**A.** Insoluble

**Q.** With `O=C(Nc1ccc(-c2ccccc2)c2c1C(=O)NC2)c1ccc(Cl)c(Cl)c1` [Example 104, 3,4-Dichloro-N-(3-oxo-7-phenylisoindolin-4-yl)benzamide] as the molecule, how does the “TNIK (μM)” value read?
**A.** Insoluble

same assay, conditions: read-out: TNIK

**Q.** For `Cc1ccc(-c2ccc(NC(=O)c3ccccc3)c3c2CNC3=O)c(C)c1` [Example 38, N-(7-(2,4-dimethylphenyl)-3-oxoisoindolin-4-yl)benzamide], which IC50 is on record?
**A.** 1.7 µM

**Q.** Which IC50 does the source give for `CCc1ccc(-c2ccc(NC(=O)c3ccccc3)c3c2CNC3=O)cc1` [Example 39, N-(7-(4-ethylphenyl)-3-oxoisoindolin-4-yl)benzamide] here?
**A.** 6.1 µM

**Q.** With `CC(C)Oc1ccc(-c2ccc(NC(=O)c3ccccc3)c3c2CNC3=O)cc1` [Example 40, N-(7-(4-isopropoxyphenyl)-3-oxoisoindolin-4-yl)benzamide] as the molecule, how does the IC50 read?
**A.** > 20 µM

**Q.** Which IC50 does the source give for `CSc1ccc(-c2ccc(NC(=O)c3ccccc3)c3c2CNC3=O)cc1` [Example 41, N-(7-(4-(methylthio)phenyl)-3-oxoisoindolin-4-yl)benzamide] here?
**A.** 1.2 µM

**Q.** How did the IC50 turn out when `CCc1cccc(-c2ccc(NC(=O)c3ccccc3)c3c2CNC3=O)c1` [Example 42, N-(7-(3-ethylphenyl)-3-oxoisoindolin-4-yl)benzamide] was run?
**A.** 3.7 µM

**Q.** How did the IC50 turn out when `CCCOc1ccccc1-c1ccc(NC(=O)c2ccccc2)c2c1CNC2=O` [Example 43, N-(3-oxo-7-(2-propoxyphenyl)isoindolin-4-yl)benzamide] was run?
**A.** > 20 µM

**Q.** `CCCOc1cccc(-c2ccc(NC(=O)c3ccccc3)c3c2CNC3=O)c1` [Example 44, N-(3-oxo-7-(3-propoxyphenyl)isoindolin-4-yl)benzamide] was tested. Which IC50 did it give?
**A.** > 20 µM

**Q.** With `CCCCOc1ccccc1-c1ccc(NC(=O)c2ccccc2)c2c1CNC2=O` [Example 45, N-(7-(2-butoxyphenyl)-3-oxoisoindolin-4-yl)benzamide] as the molecule, how does the IC50 read?
**A.** > 20 µM

**Q.** With `CCCCOc1cccc(-c2ccc(NC(=O)c3ccccc3)c3c2CNC3=O)c1` [Example 46, N-(7-(3-butoxyphenyl)-3-oxoisoindolin-4-yl)benzamide] as the molecule, how does the IC50 read?
**A.** > 20 µM

**Q.** How did the IC50 turn out when `CS(=O)(=O)c1ccccc1-c1ccc(NC(=O)c2ccccc2)c2c1CNC2=O` [Example 47, N-(7-(2-(methylsulfonyl)phenyl)-3-oxoisoindolin-4-yl) benzamide] was run?
**A.** > 20 µM

**Q.** Which IC50 does the source give for `COc1c(F)cccc1-c1ccc(NC(=O)c2ccccc2)c2c1CNC2=O` [Example 48, N-(7-(3-fluoro-2-methoxyphenyl)-3-oxoisoindolin-4-yl) benzamide] here?
**A.** 0.49 µM

**Q.** How did the IC50 turn out when `COc1cc(Cl)ccc1-c1ccc(NC(=O)c2ccccc2)c2c1CNC2=O` [Example 49, N-(7-(4-chloro-2-methoxyphenyl)-3-oxoisoindolin-4-yl) benzamide] was run?
**A.** > 20 µM

**Q.** For `O=C(Nc1ccc(-c2cccc(Cl)c2F)c2c1C(=O)NC2)c1ccccc1` [Example 50, N-(7-(3-chloro-2-fluorophenyl)-3-oxoisoindolin-4-yl)benzamide], which IC50 is on record?
**A.** > 20 µM

**Q.** For `O=C(Nc1ccc(-c2cncs2)c2c1C(=O)NC2)c1ccccc1` [Example 51, N-(3-oxo-7-(thiazol-5-yl)isoindolin-4-yl)benzamide], which IC50 is on record?
**A.** 0.44 µM

**Q.** How did the IC50 turn out when `O=C(Nc1ccc(-c2cscn2)c2c1C(=O)NC2)c1ccccc1` [Example 52, N-(3-oxo-7-(thiazol-4-yl)isoindolin-4-yl)benzamide] was run?
**A.** 2.8 µM

**Q.** How did the IC50 turn out when `O=C(Nc1ccc(-c2nccs2)c2c1C(=O)NC2)c1ccccc1` [Example 53, N-(3-oxo-7-(thiazol-2-yl)isoindolin-4-yl)benzamide] was run?
**A.** 2.34 µM

**Q.** How did the IC50 turn out when `O=C(Nc1ccc(-c2c[nH]cn2)c2c1C(=O)NC2)c1ccccc1` [Example 54, N-(7-(1H-imidazol-4-yl)-3-oxoisoindolin-4-yl)benzamide] was run?
**A.** 3.82 µM

**Q.** For `O=C(Nc1ccc(-c2cn[nH]c2)c2c1C(=O)NC2)c1ccccc1` [Example 55, N-(3-oxo-7-(1H-pyrazol-4-yl)isoindolin-4-yl)benzamide], which IC50 is on record?
**A.** 4.62 µM

**Q.** Which IC50 does the source give for `Cn1cncc1-c1ccc(NC(=O)c2ccccc2)c2c1CNC2=O` [Example 56, N-(7-(1-methyl-1H-imidazol-5-yl)-3-oxoisoindolin-4-yl) benzamide] here?
**A.** 2.21 µM

**Q.** How did the IC50 turn out when `Cn1cc(-c2ccc(NC(=O)c3ccccc3)c3c2CNC3=O)cn1` [Example 57, N-(7-(1-methyl-1H-pyrazol-4-yl)-3-oxoisoindolin-4-yl) benzamide] was run?
**A.** 2.17 µM

**Q.** Which IC50 does the source give for `O=C(Nc1ccc(-c2ncn[nH]2)c2c1C(=O)NC2)c1ccccc1` [Example 58, N-(3-oxo-7-(1H-1,2,4-triazol-5-yl)isoindolin-4-yl)benzamide] here?
**A.** 2.67 µM

**Q.** `Cn1ncnc1-c1ccc(NC(=O)c2ccccc2)c2c1CNC2=O` [Example 59, N-(7-(1-methyl-1H-1,2,4-triazol-5-yl)-3-oxoisoindolin-4-yl) benzamide] was tested. Which IC50 did it give?
**A.** > 20 µM

**Q.** With `COc1ccc(-c2ccc(N)c3c2CNC3=O)cc1` [Example 60, 7-Amino-4-(4-methoxyphenyl)isoindolin-1-one] as the molecule, how does the IC50 read?
**A.** > 20 µM

**Q.** `Nc1ccc(-c2ccc(Cl)cc2)c2c1C(=O)NC2` [Example 62, 7-Amino-4-(4-chlorophenyl)isoindolin-1-one] was tested. Which IC50 did it give?
**A.** > 20 µM

**Q.** Which IC50 does the source give for `Cc1ccc(-c2ccc(N)c3c2CNC3=O)cc1` [Example 63, 7-Amino-4-(p-tolyl)isoindolin-1-one] here?
**A.** > 20 µM

**Q.** For `CC(=O)c1ccc(-c2ccc(N)c3c2CNC3=O)cc1` [Example 64, 4-(4-Acetylphenyl)-7-aminoisoindolin-1-one], which IC50 is on record?
**A.** > 20 µM

**Q.** `Nc1ccc(-c2ccncc2)c2c1C(=O)NC2` [Example 65, 7-Amino-4-(pyridin-4-yl)isoindolin-1-one] was tested. Which IC50 did it give?
**A.** > 20 µM

**Q.** For `Cc1ccccc1C(=O)Nc1ccc(-c2ccccc2)c2c1C(=O)NC2` [Example 87, 2-Methyl-N-(3-oxo-7-phenylisoindolin-4-yl)benzamide], which IC50 is on record?
**A.** 14.6 µM

**Q.** With `Cc1cccc(C(=O)Nc2ccc(-c3ccccc3)c3c2C(=O)NC3)c1` [Example 88, 3-Methyl-N-(3-oxo-7-phenylisoindolin-4-yl)benzamide] as the molecule, how does the IC50 read?
**A.** 2.8 µM

**Q.** How did the IC50 turn out when `Cc1ccc(C(=O)Nc2ccc(-c3ccccc3)c3c2C(=O)NC3)cc1` [Example 89, 4-Methyl-N-(3-oxo-7-phenylisoindolin-4-yl)benzamide] was run?
**A.** 0.77 µM

**Q.** How did the IC50 turn out when `O=C(Nc1ccc(-c2ccccc2)c2c1C(=O)NC2)c1cccc(Cl)c1` [Example 90, 3-Chloro-N-(3-oxo-7-phenylisoindolin-4-yl)benzamide] was run?
**A.** > 20 µM

**Q.** For `O=C(Nc1ccc(-c2ccccc2)c2c1C(=O)NC2)c1ccc(F)cc1F` [Example 91, 2,4-Difluoro-N-(3-oxo-7-phenylisoindolin-4-yl)benzamide], which IC50 is on record?
**A.** > 20 µM

**Q.** How did the IC50 turn out when `O=C(Nc1ccc(-c2ccccc2)c2c1C(=O)NC2)c1ccc(F)c(F)c1` [Example 92, 3,4-Difluoro-N-(3-oxo-7-phenylisoindolin-4-yl)benzamide] was run?
**A.** > 20 µM

**Q.** How did the IC50 turn out when `Cc1ccc(C(=O)Nc2ccc(-c3ccccc3)c3c2C(=O)NC3)cc1C` [Example 93, 3,4-Dimethyl-N-(3-oxo-7-phenylisoindolin-4-yl)benzamide] was run?
**A.** 1.1 µM

**Q.** For `CN(C)c1ccccc1C(=O)Nc1ccc(-c2ccccc2)c2c1C(=O)NC2` [Example 94, 2-(Dimethylamino)-N-(3-oxo-7-phenylisoindolin-4-yl) benzamide], which IC50 is on record?
**A.** > 20 µM

**Q.** For `CSc1ccccc1C(=O)Nc1ccc(-c2ccccc2)c2c1C(=O)NC2` [Example 96, 2-(Methylthio)-N-(3-oxo-7-phenylisoindolin-4-yl)benzamide], which IC50 is on record?
**A.** 7 µM

**Q.** How did the IC50 turn out when `CSc1cccc(C(=O)Nc2ccc(-c3ccccc3)c3c2C(=O)NC3)c1` [Example 97, 3-(Methylthio)-N-(3-oxo-7-phenylisoindolin-4-yl)benzamide] was run?
**A.** > 20 µM

**Q.** With `CS(=O)(=O)c1ccccc1C(=O)Nc1ccc(-c2ccccc2)c2c1C(=O)NC2` [Example 98, 2-(Methylsulfonyl)-N-(3-oxo-7-phenylisoindolin-4-yl) benzamide] as the molecule, how does the IC50 read?
**A.** 10.5 µM

**Q.** `CS(=O)(=O)c1cccc(C(=O)Nc2ccc(-c3ccccc3)c3c2C(=O)NC3)c1` [Example 99, 3-(Methylsulfonyl)-N-(3-oxo-7-phenylisoindolin-4-yl) benzamide] was tested. Which IC50 did it give?
**A.** 4.3 µM

**Q.** How did the IC50 turn out when `CS(=O)(=O)c1ccc(C(=O)Nc2ccc(-c3ccccc3)c3c2C(=O)NC3)cc1` [Example 100, 4-(Methylsulfonyl)-N-(3-oxo-7-phenylisoindolin-4-yl) benzamide] was run?
**A.** > 20 µM

**Q.** `COc1ccc(C(=O)Nc2ccc(-c3ccccc3)c3c2C(=O)NC3)c(OC)c1` [Example 101, 2,4-Dimethoxy-N-(3-oxo-7-phenylisoindolin-4-yl)benzamide] was tested. Which IC50 did it give?
**A.** > 20 µM

**Q.** With `O=C(Nc1ccc(-c2ccccc2)c2c1C(=O)NC2)c1ccc(Cl)cc1Cl` [Example 103, 2,4-Dichloro-N-(3-oxo-7-phenylisoindolin-4-yl)benzamide] as the molecule, how does the IC50 read?
**A.** > 20 µM

**Q.** `Cc1ccc(C(=O)Nc2ccc(-c3ccccc3)c3c2C(=O)NC3)c(C)c1` [Example 105, 2,4-Dimethyl-N-(3-oxo-7-phenylisoindolin-4-yl)benzamide] was tested. Which IC50 did it give?
**A.** > 20 µM

**Q.** `CC(=O)Nc1ccccc1C(=O)Nc1ccc(-c2ccccc2)c2c1C(=O)NC2` [Example 106, 2-Acetamido-N-(3-oxo-7-phenylisoindolin-4-yl)benzamide] was tested. Which IC50 did it give?
**A.** > 20 µM

**Q.** For `CC(=O)Nc1cccc(C(=O)Nc2ccc(-c3ccccc3)c3c2C(=O)NC3)c1` [Example 107, 3-Acetamido-N-(3-oxo-7-phenylisoindolin-4-yl)benzamide], which IC50 is on record?
**A.** 0.48 µM

**Q.** `CNc1ccc(C(=O)Nc2ccc(-c3ccccc3)c3c2C(=O)NC3)cc1` [Example 108, 4-(Methylamino)-N-(3-oxo-7-phenylisoindolin-4-yl)benzamide] was tested. Which IC50 did it give?
**A.** 0.78 µM
